This passage reports carcinogen call results from PubChem BioAssay AID1259411 (Chemical Carcinogenesis Research Information System (CCRIS), 2018).

SMILES strings stand for the structures. Activity calls are given as the source filed them. How the calls were made is not given here.

The test system of this series is rodent carcinogenicity bioassays, tumor incidence. The series is described as follows: CCRIS carcinogenicity studies. An outline of the steps:
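Archive of carcinogenicity, mutagenicity, tumor promotion and tumor inhibition results drawn from journals, NCI reports and other sources, expert-reviewed; covers 1985-2011 and is no longer updated.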

Turning to `C1=Cc2cc3ccccc3c3cccc1c23`, the carcinogen call runs as follows: (Species: MOUSE, Strain/Sex: BLU:HA/FEMALE, Route: INTRAPERITONEAL, Dose: 0, 175, 437.5 UG/KG/D ON DAYS 1 (1/7 TOTAL DOSE), 8 (2/7 TOTAL DOSE), AND 15 (4/7 TOTAL DOSE) AFTER BIRTH (STUDY DURATIO, Dose: 0, 175, 437.5 UG/KG/D ON DAYS 1 (1/7 TOTAL DOSE), 8 (2/7 TOTAL DOSE), AND 15 (4/7 TOTAL DOSE) AFTER BIRTH (STUDY DURATIO) “inactive; negative”; (Species: MOUSE, Strain/Sex: BLU:HA/MALE, Route: INTRAPERITONEAL, Dose: 0, 175, 437.5 UG/KG/D ON DAYS 1 (1/7 TOTAL DOSE), 8 (2/7 TOTAL DOSE), AND 15 (4/7 TOTAL DOSE) AFTER BIRTH (STUDY DURATIO, Dose: 0, 175, 437.5 UG/KG/D ON DAYS 1 (1/7 TOTAL DOSE), 8 (2/7 TOTAL DOSE), AND 15 (4/7 TOTAL DOSE) AFTER BIRTH (STUDY DURATIO, Tumor Site: Type of Lesion: LUNG: ADENOMA) “active; positive”; (Species: MOUSE, Strain/Sex: CD-1/FEMALE, Route: INTRAPERITONEAL, Dose: 0, 175, 437.5, 875 UG/KG/D ON DAYS 1 (1/7 TOTAL DOSE), 8 (2/7 TOTAL DOSE), AND 15 (4/7 TOTAL DOSE) AFTER BIRTH (STUDY DU, Dose: 0, 175, 437.5, 875 UG/KG/D ON DAYS 1 (1/7 TOTAL DOSE), 8 (2/7 TOTAL DOSE), AND 15 (4/7 TOTAL DOSE) AFTER BIRTH (STUDY DU) “inactive; negative”; (Species: MOUSE, Strain/Sex: CD-1/MALE, Route: INTRAPERITONEAL, Dose: 0, 175, 437.5, 875 UG/KG/D ON DAYS 1 (1/7 TOTAL DOSE), 8 (2/7 TOTAL DOSE), AND 15 (4/7 TOTAL DOSE) AFTER BIRTH (STUDY DU, Dose: 0, 175, 437.5, 875 UG/KG/D ON DAYS 1 (1/7 TOTAL DOSE), 8 (2/7 TOTAL DOSE), AND 15 (4/7 TOTAL DOSE) AFTER BIRTH (STUDY DU, Tumor Site: Type of Lesion: LUNG: ADENOMA OR ADENOCARCINOMA, LIVER: TUMOR) “active; positive”.

`Nc1ccc(-c2ccccc2)cc1O`: the carcinogen call is “inactive; negative” (Species: MOUSE, Strain/Sex: SWISS/FEMALE, Route: SUBCUTANEOUS, Dose: 0, 200 UG IN 0.02 ML 3% AQUEOUS GELATIN 1/D FOR 3 D (STUDY DURATION: 52 WK)) and “active; positive” (Species: MOUSE, Strain/Sex: SWISS/MALE, Route: SUBCUTANEOUS, Dose: 0, 200 UG IN 0.02 ML 3% AQUEOUS GELATIN 1/D FOR 3 D (STUDY DURATION: 52 WK), Tumor Site: Type of Lesion: LIVER: HEPATOMA).

Consider `Cc1cc(C(C)(C)C)c(O)c(C(C)(C)C)c1`, for which the carcinogen call was “inactive; negative” (Species: MOUSE, Strain/Sex: B6C3F1/FEMALE, Route: ORAL, Dose: 0, 3000, 6000 PPM IN DIET, Dose: 0, 3000, 6000 PPM IN DIET); “inactive; negative” (Species: MOUSE, Strain/Sex: B6C3F1/MALE,FEMALE, Route: ORAL, Dose: 200, 1000, 5000 PPM IN DIET FOR 96 WK, Dose: 200, 1000, 5000 PPM IN DIET FOR 96 WK); “inactive; negative” (Species: MOUSE, Strain/Sex: B6C3F1/MALE, Route: ORAL, Dose: 0, 3000, 6000 PPM IN DIET, Dose: 0, 3000, 6000 PPM IN DIET); “inactive; negative” (Species: RAT, Strain/Sex: F344/FEMALE, Route: ORAL, Dose: 0, 3000, 6000 PPM IN DIET, Dose: 0, 3000, 6000 PPM IN DIET); “inactive; negative” (Species: RAT, Strain/Sex: F344/MALE, Route: ORAL, Dose: 0, 3000, 6000 PPM IN DIET, Dose: 0, 3000, 6000 PPM IN DIET).

On to `C[C@]12CC[C@H]3C(=CCc4cc(OS(=O)(=O)O)ccc43)[C@@H]1CCC2=O`, for which the carcinogen call (Species: HAMSTER, Strain/Sex: SYRIAN/MALE, Route: SUBCUTANEOUS IMPLANT, Dose: 0, 20 MG IN PELLETS IMPLANTED EVERY 2.5 MO FOR 9 MO (STUDY DURATION: 9 MO), Tumor Site: Type of Lesion: KIDNEY: TUMOR) was “active; positive”.

Consider `Clc1ccc2c(c1)Oc1ccc(Cl)cc1O2`, for which the carcinogen call by setting is: (Species: MOUSE, Strain/Sex: B6C3F1/FEMALE, Route: ORAL, Dose: 0, 5,000, 10,000 PPM IN DIET FOR 90 WK (STUDY DURATION: 91-98 WK), Dose: 0, 5,000, 10,000 PPM IN DIET FOR 90 WK (STUDY DURATION: 91-98 WK)) “inactive; negative”; (Species: MOUSE, Strain/Sex: B6C3F1/MALE, Route: ORAL, Dose: 0, 5000, 10000 PPM IN DIET FOR 90 WK (STUDY DURATION: 92-101 WK), Dose: 0, 5000, 10000 PPM IN DIET FOR 90 WK (STUDY DURATION: 92-101 WK), Tumor Site: Type of Lesion: LIVER: HEPTOCELLULAR ADENOMA OR CARCINOMA, HEMATOPOIETIC SYSTEM: LYMPHOMA OR LEUKEMIA, SPLEEN: HEMANGIOMA OR HEMANGIOSAR, Tumor Site: Type of Lesion: LIVER: HEPTOCELLULAR ADENOMA OR CARCINOMA, HEMATOPOIETIC SYSTEM: LYMPHOMA OR LEUKEMIA, SPLEEN: HEMANGIOMA OR HEMANGIOSAR) “equivocal”; (Species: RAT, Strain/Sex: OSBORNE-MENDEL/FEMALE, Route: ORAL, Dose: 0, 5,000, 10,000 PPM IN DIET FOR 110 WK (STUDY DURATION: 110-117 WK), Dose: 0, 5,000, 10,000 PPM IN DIET FOR 110 WK (STUDY DURATION: 110-117 WK)) “inactive; negative”; (Species: RAT, Strain/Sex: OSBORNE-MENDEL/MALE, Route: ORAL, Dose: 0, 5,000, 10,000 PPM IN DIET FOR 110 WK (STUDY DURATION: 110-112 WK), Dose: 0, 5,000, 10,000 PPM IN DIET FOR 110 WK (STUDY DURATION: 110-112 WK)) “inactive; negative”.

For `CC(O)CN(N=O)C(N)=O` (centres undefined), the carcinogen call (Species: HAMSTER, Strain/Sex: SYRIAN/FEMALE, Route: GAVAGE, Dose: 0, 16 MG/ML ((0.2 ML OF A SOLUTION IN ETHYL ACETATE/CORN OIL (1:2)) 1/WK FOR 24 WK (STUDY DURATION: LIFE SPAN), Tumor Site: Type of Lesion: LIVER: HEMANGIOSARCOMA, SPLEEN: HEMANGIOSARCOMA, FORESTOMACH: SQUAMOUS CELL CARCINOMA OR PAPILLOMA, Tumor Site: Type of Lesion: LIVER: HEMANGIOSARCOMA, SPLEEN: HEMANGIOSARCOMA, FORESTOMACH: SQUAMOUS CELL CARCINOMA OR PAPILLOMA) is “active; positive”; the carcinogen call (Species: RAT, Strain/Sex: F344/FEMALE, Route: GAVAGE, Dose: 0, 8 MG/ML (TOTAL DOSE 0; 0.4 MMOL) IN 2 ML ETHYL ACETATE AND CORN OIL (1:2) 2/WK FOR 18 WK (STUDY DURATION: LIFETIME), Dose: 0, 8 MG/ML (TOTAL DOSE 0; 0.4 MMOL) IN 2 ML ETHYL ACETATE AND CORN OIL (1:2) 2/WK FOR 18 WK (STUDY DURATION: LIFETIME), Tumor Site: Type of Lesion: THYMUS: LYMPHOMA) is “active; positive”; the carcinogen call (Species: RAT, Strain/Sex: F344/FEMALE, Route: GAVAGE, Dose: 0, 8 MG/ML IN 0.2 ML ETHYL ACETATE AND CORN OIL 2/WK FOR 18 WK (STUDY DURATION: LIFESPAN), Tumor Site: Type of Lesion: THYMUS: TUMOR) was “active; positive”; the carcinogen call (Species: RAT, Strain/Sex: F344/FEMALE, Route: INTRAVESICULAR, Dose: 0, 3.2 MG 2/WK FOR 30 WK (STUDY DURATION: LIFETIME), Tumor Site: Type of Lesion: BLADDER: TUMOR) is “active; positive”; the carcinogen call (Species: RAT, Strain/Sex: F344/MALE, Route: GAVAGE, Dose: 0, 8 MG/ML (TOTAL DOSE 0; 0.4 MMOL) IN 2 ML ETHYL ACETATE AND CORN OIL (1:2) 2/WK FOR 18 WK (STUDY DURATION: LIFETIME), Dose: 0, 8 MG/ML (TOTAL DOSE 0; 0.4 MMOL) IN 2 ML ETHYL ACETATE AND CORN OIL (1:2) 2/WK FOR 18 WK (STUDY DURATION: LIFETIME), Tumor Site: Type of Lesion: THYMUS: LYMPHOMA) was “active; positive”; the carcinogen call (Species: RAT, Strain/Sex: F344/MALE, Route: GAVAGE, Dose: 0, 8 MG/ML IN 0.2 ML ETHYL ACETATE AND CORN OIL 2/WK FOR 18 WK (STUDY DURATION: LIFESPAN), Tumor Site: Type of Lesion: THYMUS: TUMOR) was “active; positive”.

Take `O=[N+]([O-])c1ccc(OC2CO2)cc1` (centres undefined): for the setting “Species: MOUSE, Strain/Sex: B6C3F1/MALE, Route: INTRAPERITONEAL, Dose: 0, 60 NMOL/G BW IN 10 µL TRIOCTANOIN ONCE (STUDY DURATION: 10 MO), Tumor Site: Type of Lesion: LIVER: HEPATOMA”, the carcinogen call was “active; positive”.

Turning to `CCO[Si](CCC1CCC2OC2C1)(OCC)OCC` (centres undefined), the carcinogen call (Species: MOUSE, Strain/Sex: C3H/MALE, Route: DERMAL, Dose: 0, 2 MG IN ACETONE 3/WK FOR DURATION OF STUDY (STUDY DURATION: LIFETIME)) was “inactive; negative”.
